Results taken from US20070021434A1, “NON-NUCLEOSIDE ANTI-HEPACIVIRUS AGENTS AND USES THEREOF” (Migenix Inc., priority 2005, published 2007).

Target: HCV RdRp (NS5B) (UniProt P26663)
Assay type: biochemical, hepatitis C virus

HCV RdRp (NS5B), sequence (P26663 whole entry, looked up): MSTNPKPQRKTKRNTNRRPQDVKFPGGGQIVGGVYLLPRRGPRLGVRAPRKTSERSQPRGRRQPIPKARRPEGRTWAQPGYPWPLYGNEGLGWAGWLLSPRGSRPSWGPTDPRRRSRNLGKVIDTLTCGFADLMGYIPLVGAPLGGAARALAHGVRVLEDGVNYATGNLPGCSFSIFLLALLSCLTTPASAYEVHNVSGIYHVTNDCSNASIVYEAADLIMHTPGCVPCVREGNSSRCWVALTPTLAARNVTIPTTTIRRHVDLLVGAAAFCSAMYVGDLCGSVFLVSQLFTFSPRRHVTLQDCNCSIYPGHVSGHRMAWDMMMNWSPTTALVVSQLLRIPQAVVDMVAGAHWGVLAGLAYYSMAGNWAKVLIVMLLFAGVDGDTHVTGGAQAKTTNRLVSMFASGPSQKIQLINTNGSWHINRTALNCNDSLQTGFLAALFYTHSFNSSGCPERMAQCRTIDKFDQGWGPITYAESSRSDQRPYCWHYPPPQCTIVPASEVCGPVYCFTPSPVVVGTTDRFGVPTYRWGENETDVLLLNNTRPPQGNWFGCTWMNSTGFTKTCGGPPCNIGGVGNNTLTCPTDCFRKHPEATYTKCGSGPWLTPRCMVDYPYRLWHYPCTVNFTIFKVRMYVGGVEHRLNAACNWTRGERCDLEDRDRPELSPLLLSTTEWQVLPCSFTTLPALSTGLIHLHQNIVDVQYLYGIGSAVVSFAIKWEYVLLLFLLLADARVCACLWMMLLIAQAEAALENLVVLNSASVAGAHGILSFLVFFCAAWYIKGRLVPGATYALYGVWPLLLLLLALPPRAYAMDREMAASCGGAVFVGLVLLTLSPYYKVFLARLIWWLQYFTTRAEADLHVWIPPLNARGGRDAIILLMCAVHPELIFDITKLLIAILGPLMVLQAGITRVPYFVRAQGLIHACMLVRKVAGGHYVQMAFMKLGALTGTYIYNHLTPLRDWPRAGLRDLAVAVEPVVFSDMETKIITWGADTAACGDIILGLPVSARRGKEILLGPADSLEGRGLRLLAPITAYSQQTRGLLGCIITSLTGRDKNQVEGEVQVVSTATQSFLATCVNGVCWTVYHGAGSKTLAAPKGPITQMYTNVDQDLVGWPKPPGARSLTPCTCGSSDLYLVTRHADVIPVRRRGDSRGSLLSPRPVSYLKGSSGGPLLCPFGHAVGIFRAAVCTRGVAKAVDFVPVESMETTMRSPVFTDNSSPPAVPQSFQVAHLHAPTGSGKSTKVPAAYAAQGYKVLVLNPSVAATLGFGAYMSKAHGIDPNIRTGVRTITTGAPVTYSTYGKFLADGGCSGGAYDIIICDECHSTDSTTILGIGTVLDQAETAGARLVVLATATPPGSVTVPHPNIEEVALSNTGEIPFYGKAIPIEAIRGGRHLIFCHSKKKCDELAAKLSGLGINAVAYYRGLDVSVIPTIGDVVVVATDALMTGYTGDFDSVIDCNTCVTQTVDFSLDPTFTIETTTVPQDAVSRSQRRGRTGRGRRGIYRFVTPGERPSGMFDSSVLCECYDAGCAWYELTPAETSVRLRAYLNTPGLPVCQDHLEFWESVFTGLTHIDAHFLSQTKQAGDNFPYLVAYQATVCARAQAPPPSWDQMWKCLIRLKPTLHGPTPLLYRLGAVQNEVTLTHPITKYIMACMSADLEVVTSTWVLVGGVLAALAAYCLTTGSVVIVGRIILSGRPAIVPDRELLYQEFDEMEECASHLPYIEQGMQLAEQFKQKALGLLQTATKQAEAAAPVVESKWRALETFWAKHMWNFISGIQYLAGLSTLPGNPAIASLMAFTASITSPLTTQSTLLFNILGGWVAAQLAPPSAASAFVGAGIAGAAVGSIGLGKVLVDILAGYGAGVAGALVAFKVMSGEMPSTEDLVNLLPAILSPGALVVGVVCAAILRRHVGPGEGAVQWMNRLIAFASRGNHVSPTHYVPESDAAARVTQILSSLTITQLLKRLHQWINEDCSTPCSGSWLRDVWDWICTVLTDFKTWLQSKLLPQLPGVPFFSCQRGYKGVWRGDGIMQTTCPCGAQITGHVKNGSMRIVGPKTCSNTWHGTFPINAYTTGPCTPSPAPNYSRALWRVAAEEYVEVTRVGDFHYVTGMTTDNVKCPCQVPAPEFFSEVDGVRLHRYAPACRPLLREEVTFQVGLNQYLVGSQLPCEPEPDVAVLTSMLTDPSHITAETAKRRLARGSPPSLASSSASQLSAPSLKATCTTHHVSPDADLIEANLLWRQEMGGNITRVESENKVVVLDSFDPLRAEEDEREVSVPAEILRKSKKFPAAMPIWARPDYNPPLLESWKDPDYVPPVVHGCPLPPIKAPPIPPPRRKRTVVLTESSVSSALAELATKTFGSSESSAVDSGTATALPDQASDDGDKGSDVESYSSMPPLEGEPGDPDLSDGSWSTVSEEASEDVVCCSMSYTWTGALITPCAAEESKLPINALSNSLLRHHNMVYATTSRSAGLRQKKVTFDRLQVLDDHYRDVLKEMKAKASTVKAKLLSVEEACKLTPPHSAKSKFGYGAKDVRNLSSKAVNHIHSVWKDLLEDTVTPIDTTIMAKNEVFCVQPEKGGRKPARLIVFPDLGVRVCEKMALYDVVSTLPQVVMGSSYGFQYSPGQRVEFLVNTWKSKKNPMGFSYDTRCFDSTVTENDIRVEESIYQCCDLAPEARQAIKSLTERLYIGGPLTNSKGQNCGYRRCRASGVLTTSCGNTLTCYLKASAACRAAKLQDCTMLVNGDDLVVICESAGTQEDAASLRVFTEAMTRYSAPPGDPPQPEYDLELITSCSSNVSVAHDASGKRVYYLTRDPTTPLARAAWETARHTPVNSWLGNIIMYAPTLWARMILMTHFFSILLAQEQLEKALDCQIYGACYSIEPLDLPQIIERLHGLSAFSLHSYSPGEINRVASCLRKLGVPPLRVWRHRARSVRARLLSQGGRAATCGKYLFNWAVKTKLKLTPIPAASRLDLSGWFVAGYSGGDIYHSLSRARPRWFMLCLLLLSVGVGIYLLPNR

Compound | IC50
NCCCC[C@H](NC(=O)OCC1c2ccccc2-c2ccccc21)C(=O)Nc1cccc(C(F)(F)F)c1 [Compound 218, (S)-[5-AMINO-1-(3-TRIFLUOROMETHYL-PHENYLCARBAMOYL)-PENTYL]-CARBAMIC ACID 9H-FLUOREN-9-YLMETHYL ESTER] | > 50 µM
O=C(CC1CNCCN1C(=O)NCc1ccc(Cl)c(Cl)c1)Nc1ccc(C2CCCCC2)cc1 (centres unmarked) [Compound 160, 2-[(4-CYCLOHEXYL-PHENYLCARBAMOYL)-METHYL]-PIPERAZINE-1-CARBOXYLIC ACID 3,4-DICHLORO-BENZYLAMIDE] | 10 to 50 µM
Cc1ccc(NC(=O)[C@@H](CCCCN)NC(=O)NCc2ccc(Cl)cc2)cc1 [Compound 169, (R)-6-AMINO-2-[3-(4-CHLORO-BENZYL)-UREIDO]-HEXANOIC ACID P-TOLYLAMIDE] | > 50 µM
O=C(N[C@@H](Cc1c[nH]c2ccccc12)C(=O)N(Cc1ccccc1)C1CCCCC1)OCC1c2ccccc2-c2ccccc21 [Compound 49, (S)-[1-(BENZYL-CYCLOHEXYL-CARBAMOYL)-2-(1H-INDOL-3-YL)-ETHYL]-CARBAMIC ACID 9H-FLUOREN-9-YLMETHYL ESTER] | > 50 µM
Cc1ccc(NC(=O)C(Cc2cccnc2)NC(=O)OCC2c3ccccc3-c3ccccc32)cc1 [Compound 385, (S)-(2-PYRIDIN-3-YL-1-P-TOLYLCARBAMOYL-ETHYL)-CARBAMIC ACID 9H-FLUOREN-9-YLMETHYL ESTER] | > 50 µM
Cc1ccc(NC(=O)[C@H](CCCCN)NC(=O)Nc2ccc(F)cc2)cc1 [Compound 43, (S)-6-AMINO-2-[3-(4-FLUORO-PHENYL)-UREIDO]-HEXANOIC ACID P-TOLYLAMIDE] | > 50 µM
NCCCC[C@H](NC(=O)OCC1c2ccccc2-c2ccccc21)C(=O)Nc1ccc2[nH]ncc2c1 [Compound 82, (S)-[5-AMINO-1-(1H-INDAZOL-5-YLCARBAMOYL)-PENTYL]-CARBAMIC ACID 9H-FLUOREN-9-YLMETHYL ESTER] | > 50 µM
Cc1ccc(NC(=O)C(CCCCN)NC(=O)Nc2ccc3ccccc3c2)cc1 [Compound 72, (S)-6-AMINO-2-(3-NAPHTHALEN-2-YL-UREIDO)-HEXANOIC ACID P-TOLYLAMIDE] | 10 to 50 µM
CC(C)(C)c1ccc(NC(=O)[C@H](Cc2ccc(CN)cc2)NC(=O)Nc2ccc3c(c2)Cc2ccccc2-3)cc1 [Compound 152, (S)-3-(4-AMINOMETHYL-PHENYL)-N-(4-TERT-BUTYL-PHENYL)-2-[3-(9H-FLUOREN-2-YL)-UREIDO]-PROPIONAMIDE] | < 10 µM
NCCCCC(NC(=O)OCC1c2ccccc2-c2ccccc21)C(=O)NCc1ccccc1 (stereo in doubt) [Compound 21, (S)-(5-AMINO-1-BENZYLCARBAMOYL-PENTYL)-CARBAMIC ACID 9H-FLUOREN-9-YLMETHYL ESTER] | > 50 µM
Cc1ccc(NC(=O)[C@H](CCCCN)NC(=O)NS(=O)(=O)c2ccccc2)cc1 [Compound 99, (S)-6-AMINO-2-[PHENYLSULFONAMIDE-UREIDO]-HEXANOIC ACID P-TOLYLAMIDE] | > 50 µM
Cc1ccc(NC(=O)[C@H](CCCCN)NC(=O)Nc2ccc(OCc3ccncc3)cc2)cc1 [Compound 279, (S)-6-AMINO-2-{3-[4-(PYRIDIN-4-YLMETHOXY)-PHENYL]-UREIDO}-HEXANOIC ACID P-TOLYLAMIDE] | > 50 µM
NCCCC[C@H](NC(=O)Nc1ccc(OCc2ccccc2)cc1)C(=O)Nc1cccc2cc[nH]c12 [Compound 307, (S)-6-AMINO-2-[3-(4-BENZYLOXY-PHENYL)-UREIDO]-HEXANOIC ACID (1H-INDOL-7-YL)-AMIDE] | 10 to 50 µM
CC(C)(C)c1ccc(NC(=O)[C@H](Cc2ccc(CN)cc2)NC(=O)NCc2ccc(Cl)c(Cl)c2)cc1 [Compound 149, (S)-3-(4-AMINOMETHYL-PHENYL)-N-(4-TERT-BUTYL-PHENYL)-2-[3-(3,4-DICHLORO-BENZYL)-UREIDO]-PROPIONAMIDE] | < 10 µM
Cc1ccc(NC(=O)C(CCCCN)NS(=O)(=O)c2ccc(C(F)(F)F)cc2)cc1 [Compound 397, (S)-6-AMINO-2-(4-TRIFLUOROMETHYL-BENZENESULFONYLAMINO)-HEXANOIC ACID P-TOLYLAMIDE] | > 50 µM
NCCCC[C@H](NC(=O)Cn1cnc2c(NC(=O)c3ccccc3)ncnc21)C(=O)N(Cc1ccccc1)C1CCCCC1 [Compound 88, (S)-N-(9-{[5-AMINO-1-(BENZYL-CYCLOHEXYL-CARBAMOYL)-PENTYLCARBAMOYL]-METHYL}-9H-PURIN-6-YL)-BENZAMIDE] | > 50 µM
Cc1ccc(NC(=O)[C@@H](CCCCN)NC(=O)OCC2c3ccccc3-c3ccccc32)cc1 [Compound 20, (S)-(5-AMINO-1-P-TOLYLCARBAMOYL-PENTYL)-CARBAMIC ACID 9H-FLUOREN-9-YLMETHYL ESTER] | 10 to 50 µM
COc1ccc(NC(=O)[C@H](CCCCN)NC(=O)OCC2c3ccccc3-c3ccccc32)cc1 [Compound 83, (S)-[5-AMINO-1-(4-METHOXY-PHENYLCARBAMOYL)-PENTYL]-CARBAMIC ACID 9H-FLUOREN-9-YLMETHYL ESTER] | 10 to 50 µM
Cc1ccc(NC(=O)C(CNC(=O)CNC(=O)CN)NC(=O)OCC2c3ccccc3-c3ccccc32)cc1 [Compound 222, (S)-{2-[2-(2-AMINO-ACETYLAMINO)-ACETYLAMINO]-1-P-TOLYLCARBAMOYL-ETHYL}-CARBAMIC ACID 9H-FLUOREN-9-YLMETHYL ESTER] | 10 to 50 µM

Compound | IC50
COc1ccc(-c2ccccc2)cc1NC(=O)NC(CCCCN)C(=O)Nc1ccc(C)cc1 [Compound 93, (S)-6-AMINO-2-[3-(4-METHOXY-BIPHENYL-3-YL)-UREIDO]-HEXANOIC ACID P-TOLYLAMIDE] | > 50 µM
NCCCC[C@H](NC(=O)c1ccccc1)C(=O)Nc1ccc(CN(C(=O)c2ccco2)C2CCCCC2)cc1 [Compound 27, (S)-FURAN-2-CARBOXYLIC ACID [4-(6-AMINO-2-BENZOYLAMINO-HEXANOYLAMINO)-BENZYL]-CYCLOHEXYL-AMIDE] | > 50 µM
Cc1ccc(NC(=O)C(CCCCN)NC(=O)OCC2c3ccccc3-c3ccccc32)cn1 (centres unmarked) [Compound 294, [5-AMINO-1-(6-METHYL-PYRIDIN-3-YLCARBAMOYL)-PENTYL]-CARBAMIC ACID 9H-FLUOREN-9-YLMETHYL ESTER] | > 50 µM
Cc1ccc(NC(=O)CC2CN(C(=O)C(C)N)CCN2C(=O)OCC2c3ccccc3-c3ccccc32)cc1 (centres unmarked) [Compound 185, 4-(R-2-AMINO-PROPIONYL)-2-(P-TOLYLCARBAMOYL-METHYL)-PIPERAZINE-1-CARBOXYLIC ACID 9H-FLUOREN-9-YLMETHYL ESTER] | > 50 µM
Cc1cc2cc(NC(=O)[C@H](CCCCNC(=O)CN)NC(=O)Nc3ccc4c(c3)Cc3ccccc3-4)ccc2[nH]1 [Compound 298, (S)-6-(2-AMINO-ACETYLAMINO)-2-[3-(9H-FLUOREN-2-YL)-UREIDO]-HEXANOIC ACID (2-METHYL-1H-INDOL-5-YL)-AMIDE] | > 50 µM
Cc1ccc(NC(=O)C(CCCC(=O)O)NC(=O)OCC2c3ccccc3-c3ccccc32)cc1 [Compound 402, (S)-5-(9H-FLUOREN-9-YLMETHOXYCARBONYLAMINO)-5-P-TOLYLCARBAMOYL-PENTANOIC ACID] | > 50 µM
COc1ccc(C=Cc2ccc(NC(=O)N[C@@H](CCCCN)C(=O)Nc3ccc(C)cc3)cc2)cc1 [Compound 252, (S)-6-AMINO-2-(3-{4-[2-(4-METHOXY-PHENYL)-VINYL]-PHENYL}-UREIDO)-HEXANOIC ACID P-TOLYLAMIDE] | < 10 µM
Cc1ccc(NC(=O)[C@H](CCCCN)NS(=O)(=O)c2ccc3ccccc3c2)cc1 [Compound 69, (S)-6-AMINO-2-(NAPHTHALENE-2-SULFONYLAMINO)-HEXANOIC ACID P-TOLYLAMIDE] | > 50 µM
Cc1ccc(NC(=O)C(CCCCN)NC(=O)Nc2ccc(CCc3ccccc3)cc2)cc1 [Compound 243, (S)-6-AMINO-2-[3-(4-PHENETHYL-PHENYL)-UREIDO]-HEXANOIC ACID P-TOLYLAMIDE] | > 50 µM
NCCCCC[C@H](NC(=O)OCC1c2ccccc2-c2ccccc21)C(=O)Nc1ccc(C2CCCCC2)cc1 [Compound 116, (S)-[6-AMINO-1-(4-CYCLOHEXYL-PHENYLCARBAMOYL)-HEXYL]-CARBAMIC ACID 9H-FLUOREN-9-YLMETHYL ESTER] | < 10 µM
Cc1ccc(NC(=O)C(CCCCN)NC(=O)Nc2cccc3ccccc23)cc1 [Compound 71, (S)-6-AMINO-2-(3-NAPHTHALEN-1-YL-UREIDO)-HEXANOIC ACID P-TOLYLAMIDE] | > 50 µM
NCc1ccc(CNC(=O)[C@@H](NC(=O)Nc2ccc(OCc3ccccc3)cc2)c2ccccc2)cc1 [Compound 304, (S)-N-(4-AMINOMETHYL-BENZYL)-2-[3-(4-BENZYLOXY-PHENYL)-UREIDO]-2-PHENYL-ACETAMIDE] | 10 to 50 µM
Cc1ccc(NC(=O)[C@H](CCCCN)NC(=O)Nc2ccc(O)cc2)cc1 [Compound 194, (S)-6-AMINO-2-[3-(4-HYDROXY-PHENYL)-UREIDO]-HEXANOIC ACID P-TOLYLAMIDE] | > 50 µM
CC(=O)NCC(=O)N1CCN(C(=O)OCC2c3ccccc3-c3ccccc32)C(CC(=O)Nc2ccc(C)cc2)C1 (centres unmarked) [Compound 186, 4-(2-ACETYLAMINO-ACETYL)-2-(P-TOLYLCARBAMOYL-METHYL)-PIPERAZINE-1-CARBOXYLIC ACID 9H-FLUOREN-9-YLMETHYL ESTER] | > 50 µM
NCCCC[C@H](NC(=O)Nc1ccc(OCc2ccccc2)cc1)C(=O)Nc1cccc2c1CCC2 [Compound 321, (S)-6-AMINO-2-[3-(4-BENZYLOXY-PHENYL)-UREIDO]-HEXANOIC ACID INDAN-4-YLAMIDE] | < 10 µM
Cc1ccc(NC(=O)[C@H](CCCCN)NC(=O)Nc2ccc(Oc3ccccc3)cc2)cc1 [Compound 41, (S)-6-AMINO-2-[3-(4-PHENOXY-PHENYL)-UREIDO]-HEXANOIC ACID P-TOLYLAMIDE] | > 50 µM
NCCCCCCNC(=O)C(NC(=O)Nc1ccc(OCc2ccccc2)cc1)c1ccccc1 [Compound 319, (S)-NR-(6-AMINO-HEXYL)-2-[3-(4-BENZYLOXY-PHENYL)-UREIDO]-2-PHENYL-ACETAMIDE] | < 10 µM
Cc1ccc(NC(=O)C(CCCCN)NC(=O)c2ccc(C)c3ccccc23)cc1 [Compound 62, (S)-4-METHYL-NAPHTHALENE-1-CARBOXYLIC ACID (5-AMINO-1-P-TOLYLCARBAMOYL-PENTYL)-AMIDE] | > 50 µM
NCCCC[C@H](NC(=O)Nc1ccc(OCc2ccccc2)cc1)C(=O)NC1CC1 [Compound 266, (S)-6-AMINO-2-[3-(4-BENZYLOXY-PHENYL)-UREIDO]-HEXANOIC ACID CYCLOPROPYLAMIDE] | > 50 µM
